PubChem BioAssay AID180 (DTP/NCI, 2004)
Values joined by “and” are separate entries in the source; they are usually repeats but may differ in a detail not shown here. Identical values can stand only once.

Tested on: BDF1 mice, Adenocarcinoma 755 s.c., tumor weight T/C
Experiment: NCI In Vivo Anticancer Drug Screen. Data for tumor model Adenocarcinoma 755 (subcutaneous) in B6D2F1 (BDF1) mice
Conditions: endpoint: mean tumor weight, higher = larger tumour
Method in brief: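 Transplantable tumor implanted; mice dosed with compound or vehicle; survival or tumor size recorded; ratio of treated to vehicle control reported.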

SMILES: C/C(=N\NC(=O)c1ccncc1)c1ccc(F)cc1
- T/C (dose: 30.0 mg/kg/injection, schedule: Q01DX011 (ip), vehicle: methylcellulose (MC)): 95 % of control

SMILES: CSc1ncnc2c1ncn2C1OC(CO)C(O)C1O (stereo unspecified)
- T/C (dose: 1.9 mg/kg/injection, schedule: Q01DX011 (ip), vehicle: saline): 102 % of control and 87 % of control
- T/C (dose: 3.0 mg/kg/injection, schedule: Q01DX011 (ip), vehicle: saline): 90 % of control
- T/C (dose: 6.0 mg/kg/injection, schedule: Q01DX011 (ip), vehicle: saline): 112 % of control
- T/C (dose: 7.5 mg/kg/injection, schedule: Q01DX011 (ip), vehicle: saline): 100 % of control and 120 % of control
- T/C (dose: 12.5 mg/kg/injection, schedule: Q01DX011 (ip), vehicle: saline): 93 % of control

SMILES: COc1cc([C@@H]2c3cc4c(cc3[C@H](O)[C@H]3COC(=O)[C@H]23)OCO4)cc(OC)c1OC
- T/C (dose: 0.13 mg/kg/injection, schedule: Q01DX011 (ip), vehicle: carboxymethylcellulose (CMC)): 102 % of control
- T/C (dose: 0.27 mg/kg/injection, schedule: Q01DX011 (ip), vehicle: carboxymethylcellulose (CMC)): 60 % of control and 80 % of control
- T/C (dose: 0.54 mg/kg/injection, schedule: Q01DX011 (ip), vehicle: carboxymethylcellulose (CMC)): 109 % of control
- T/C (dose: 0.55 mg/kg/injection, schedule: Q01DX011 (ip), vehicle: carboxymethylcellulose (CMC)): 76 % of control
- T/C (dose: 1.08 mg/kg/injection, schedule: Q01DX011 (ip), vehicle: carboxymethylcellulose (CMC)): 120 % of control
- T/C (dose: 1.1 mg/kg/injection, schedule: Q01DX011 (ip), vehicle: carboxymethylcellulose (CMC)): 117 % of control

SMILES: CC(=O)[C@@]1(O)CC[C@H]2[C@@H]3C[C@H](C)C4=CC(=O)CC[C@]4(C)[C@H]3[C@@H](O)C[C@@]21C
- T/C (dose: 7.0 mg/kg/injection, schedule: Q01DX011 (sc), vehicle: steriod suspending solution): 70 % of control
- T/C (dose: 8.0 mg/kg/injection, schedule: Q01DX011 (sc), vehicle: steriod suspending solution): 76 % of control
- T/C (dose: 14.0 mg/kg/injection, schedule: Q01DX011 (sc), vehicle: steriod suspending solution): 54 % of control
- T/C (dose: 16.0 mg/kg/injection, schedule: Q01DX011 (sc), vehicle: steriod suspending solution): 76 % of control
- T/C (dose: 450.0 mg/kg/injection, schedule: Q01DX011 (sc), vehicle: steriod suspending solution): 87 % of control

SMILES: CCCCn1cnc2c([N+](C)(C)C)ncnc21
- T/C (dose: 3.75 mg/kg/injection, schedule: Q01DX011 (ip), vehicle: carboxymethylcellulose (CMC)): 66 % of control
- T/C (dose: 15.0 mg/kg/injection, schedule: Q01DX011 (ip), vehicle: carboxymethylcellulose (CMC)): 33 % of control and 38 % of control

SMILES: CCn1cnc2c(SC3CCCC3)ncnc21
- T/C (dose: 5.0 mg/kg/injection, schedule: Q01DX011 (ip), vehicle: carboxymethylcellulose (CMC)): 16 % of control
- T/C (dose: 7.5 mg/kg/injection, schedule: Q01DX011 (ip), vehicle: carboxymethylcellulose (CMC)): 4 % of control
- T/C (dose: 10.0 mg/kg/injection, schedule: Q01DX011 (ip), vehicle: carboxymethylcellulose (CMC)): 3 % of control
- T/C (dose: 25.0 mg/kg/injection, schedule: Q01DX011 (ip), vehicle: carboxymethylcellulose (CMC)): 14 % of control

SMILES: C[C@H]1C[C@@H]2[C@H]([C@@H](O)C[C@@]3(C)[C@H]2CC[C@]3(O)C(=O)CF)[C@@]2(C)C=CC(=O)C=C12
- T/C (dose: 2.5 mg/kg/injection, schedule: Q01DX011 (sc), vehicle: steriod suspending solution): 82 % of control
- T/C (dose: 5.0 mg/kg/injection, schedule: Q01DX011 (sc), vehicle: steriod suspending solution): 57 % of control
- T/C (dose: 10.0 mg/kg/injection, schedule: Q01DX011 (sc), vehicle: steriod suspending solution): 48 % of control
- T/C (dose: 21.0 mg/kg/injection, schedule: Q01DX011 (sc), vehicle: steriod suspending solution): 64 % of control
- T/C (dose: 25.0 mg/kg/injection, schedule: Q01DX011 (sc), vehicle: steriod suspending solution): 91 % of control
- T/C (dose: 42.0 mg/kg/injection, schedule: Q01DX011 (sc), vehicle: saline): 39 % of control
- T/C (dose: 42.0 mg/kg/injection, schedule: Q01DX011 (sc), vehicle: steriod suspending solution): 12 % of control and 25 % of control (2×)
- T/C (dose: 50.0 mg/kg/injection, schedule: Q01DX011 (sc), vehicle: steriod suspending solution): 59 % of control
- T/C (dose: 84.0 mg/kg/injection, schedule: Q01DX011 (sc), vehicle: saline): 61 % of control
- T/C (dose: 84.0 mg/kg/injection, schedule: Q01DX011 (sc), vehicle: steriod suspending solution): 9 % of control
- T/C (dose: 100.0 mg/kg/injection, schedule: Q01DX011 (sc), vehicle: steriod suspending solution): 55 % of control
- T/C (dose: 168.0 mg/kg/injection, schedule: Q01DX011 (sc), vehicle: saline): 19 % of control
- T/C (dose: 168.0 mg/kg/injection, schedule: Q01DX011 (sc), vehicle: steriod suspending solution): 1 % of control
- T/C (dose: 200.0 mg/kg/injection, schedule: Q01DX011 (sc), vehicle: steriod suspending solution): 57 % of control
- T/C (dose: 336.0 mg/kg/injection, schedule: Q01DX011 (sc), vehicle: saline): 19 % of control
- T/C (dose: 400.0 mg/kg/injection, schedule: Q01DX011 (sc), vehicle: steriod suspending solution): 23 % of control
- T/C (dose: 500.0 mg/kg/injection, schedule: Q01DX011 (sc), vehicle: steriod suspending solution): 39 % of control
- T/C (dose: 600.0 mg/kg/injection, schedule: Q01DX011 (sc), vehicle: steriod suspending solution): 37 % of control
- T/C (dose: 700.0 mg/kg/injection, schedule: Q01DX011 (sc), vehicle: steriod suspending solution): 17 % of control

SMILES: Cc1cnc(SCc2ccc(Cl)cc2Cl)[nH]c1=O
- T/C (dose: 31.0 mg/kg/injection, schedule: Q01DX011 (ip), vehicle: methylcellulose (MC)): 110 % of control
- T/C (dose: 62.0 mg/kg/injection, schedule: Q01DX011 (ip), vehicle: methylcellulose (MC)): 113 % of control
- T/C (dose: 125.0 mg/kg/injection, schedule: Q01DX011 (ip), vehicle: methylcellulose (MC)): 82 % of control
- T/C (dose: 250.0 mg/kg/injection, schedule: Q01DX011 (ip), vehicle: methylcellulose (MC)): 99 % of control

SMILES: CO[C@@]12[C@H](COC(N)=O)C3=C(C(=O)C(C)=C(N)C3=O)N1C[C@@H]1N[C@@H]12
- T/C (dose: 0.1 mg/kg/injection, schedule: Q01DX011 (ip), vehicle: carboxymethylcellulose (CMC)): 82 % of control
- T/C (dose: 0.1 mg/kg/injection, schedule: Q01DX011 (ip), vehicle: methylcellulose (MC)): 60 % of control
- T/C (dose: 0.2 mg/kg/injection, schedule: Q01DX011 (ip), vehicle: carboxymethylcellulose (CMC)): 79 % of control
- T/C (dose: 0.25 mg/kg/injection, schedule: Q01DX011 (ip), vehicle: carboxymethylcellulose (CMC)): 69 % of control
- T/C (dose: 0.32 mg/kg/injection, schedule: Q01DX011 (ip), vehicle: carboxymethylcellulose (CMC)): 92 % of control and 116 % of control
- T/C (dose: 0.5 mg/kg/injection, schedule: Q01DX011 (ip), vehicle: carboxymethylcellulose (CMC)): 17 % of control
- T/C (dose: 0.5 mg/kg/injection, schedule: Q01DX011 (ip), vehicle: methylcellulose (MC)): 26 % of control
- T/C (dose: 0.53 mg/kg/injection, schedule: Q01DX011 (ip), vehicle: carboxymethylcellulose (CMC)): 63 % of control and 71 % of control
- T/C (dose: 0.82 mg/kg/injection, schedule: Q01DX011 (ip), vehicle: carboxymethylcellulose (CMC)): 22 % of control
- T/C (dose: 1.0 mg/kg/injection, schedule: Q01DX011 (ip), vehicle: carboxymethylcellulose (CMC)): 8 % of control
- T/C (dose: 1.0 mg/kg/injection, schedule: Q01DX011 (ip), vehicle: methylcellulose (MC)): 12 % of control
- T/C (dose: 1.02 mg/kg/injection, schedule: Q01DX011 (ip), vehicle: carboxymethylcellulose (CMC)): 14 % of control
- T/C (dose: 1.36 mg/kg/injection, schedule: Q01DX011 (ip), vehicle: carboxymethylcellulose (CMC)): 5 % of control
- T/C (dose: 2.0 mg/kg/injection, schedule: Q01DX011 (ip), vehicle: carboxymethylcellulose (CMC)): 1 % of control
- T/C (dose: 180.0 micrograms/kg/injection, schedule: Q01DX011 (ip), vehicle: carboxymethylcellulose (CMC)): 89 % of control
- T/C (dose: 300.0 micrograms/kg/injection, schedule: Q01DX011 (ip), vehicle: carboxymethylcellulose (CMC)): 86 % of control
- T/C (dose: 450.0 micrograms/kg/injection, schedule: Q01DX011 (ip), vehicle: carboxymethylcellulose (CMC)): 24 % of control and 29 % of control
- T/C (dose: 512.0 micrograms/kg/injection, schedule: Q01DX011 (ip), vehicle: carboxymethylcellulose (CMC)): 87 % of control
- T/C (dose: 900.0 micrograms/kg/injection, schedule: Q01DX011 (ip), vehicle: carboxymethylcellulose (CMC)): 5 % of control
- T/C (dose: 1025.0 micrograms/kg/injection, schedule: Q01DX011 (ip), vehicle: carboxymethylcellulose (CMC)): 63 % of control
- T/C (dose: 2050.0 micrograms/kg/injection, schedule: Q01DX011 (ip), vehicle: carboxymethylcellulose (CMC)): 8 % of control

SMILES: CCC1CN1P(=O)(Oc1cccc2ccccc12)N1CC1CC (stereo unspecified)
- T/C (dose: 88.0 mg/kg/injection, schedule: Q01DX011 (ip), vehicle: carboxymethylcellulose (CMC)): 42 % of control
- T/C (dose: 88.0 mg/kg/injection, schedule: Q01DX011 (ip), vehicle: methylcellulose (MC)): 80 % of control
- T/C (dose: 175.0 mg/kg/injection, schedule: Q01DX011 (ip), vehicle: methylcellulose (MC)): 92 % of control
- T/C (dose: 350.0 mg/kg/injection, schedule: Q01DX011 (ip), vehicle: methylcellulose (MC)): 59 % of control
